Values joined by “and” are separate entries in the source; they are usually repeats but may differ in a detail not shown here. Identical values can stand only once.
tested on: CQ-resistant (Dd2) strain of P. falciparum; assay: In vitro antiplasmodial activity, SYBR Green I fluorescence assay, Dd2 strain; format: cell-based, Plasmodium falciparum; conditions: CQ-resistant (Dd2) strain, 72 h incubation; read-out: EC50 (nmol)
Method: A set of 104 new styrylquinoline derivatives were synthesized and investigated for in vitro their antimalarial activity. To test antimalarial activities, different dilutions of compounds were added to P. falciparum culture. Following 72 h incubation at 37° C. in an atmosphere containing 5% CO2, the inhibitory property of the compounds were determined by SYBR Green I fluorescence assay. Meanwhile, SARs studies were conducted.
The SAR studies were focused on improving the in vitro activity of 2-arylvinylquinolines against the CQ-resistant Pf Dd2 strain.

Going from COc1ccc2nc(C)cc(NCCN(C)C)c2c1 [Compound 6a] to Cc1cc(NCCN(C)C)c2cc(Cl)ccc2n1 [Compound 6c], the EC50 falls from 5520 ± 571 nM to 732 ± 107 nM (7.5-fold). The second is the more potent here.

Compared with Cc1cc(NCCCN(C)C)c2cc(Cl)ccc2n1 [Compound 6e], CN(C)CCCCNc1cc(/C=C/c2ccccc2)nc2ccc(Cl)cc12 [Compound 35] is 18-fold lower in EC50: 1240 ± 139 nM for the first, 68 ± 9 nM for the second.

COc1ccc(/C=C/c2cc(NCCN(C)C)c3cc(OC)ccc3n2)cc1 [Compound 12] and COc1ccc2nc(/C=C/c3ccc(F)cc3)cc(NCCN(C)C)c2c1 [Compound 15] are within 1.5-fold of each other in EC50: 43.6 ± 2 nM for the first, 32.9 ± 5.1 nM for the second.

First: COc1ccc2nc(/C=C/c3ccc(OC)c(OC)c3)cc(NCCN(C)C)c2c1 [Compound 13]
Second: COc1ccc(/C=C/c2cc(NCCN(C)C)c3cc(F)ccc3n2)cc1OC [Compound 20]
The EC50 of the first is 4.5-fold higher: 187 ± 13.6 nM for the first, 41.1 ± 0.6 nM for the second. The second is the more potent here.

First: COc1ccc2nc(/C=C/c3cc(OC)c(OC)c(OC)c3)cc(NCCN(C)C)c2c1 [Compound 14]
Second: COc1cc(/C=C/c2cc(NCCN(C)C)c3cc(Cl)ccc3n2)cc(OC)c1OC [Compound 27]
The EC50 of the first is 1.7-fold higher: 74.2 ± 8.8 nM for the first, 44.4 ± 3.6 nM for the second.

CN(C)CCNc1cc(/C=C/c2ccc([N+](=O)[O-])cc2)nc2ccc(F)cc12 [Compound 17] and CN(C)CCNc1cc(/C=C/c2ccc([N+](=O)[O-])cc2)nc2ccc(Cl)cc12 [Compound 23] are within error of each other in EC50: 30.9 ± 5.9 nM for the first, 28.7 ± 3.8 nM for the second.

CN(C)CCNc1cc(/C=C/c2ccc(F)cc2)nc2ccc(F)cc12 [Compound 18] and COc1ccc(/C=C/c2cc(NCCN(C)C)c3cc(F)ccc3n2)cc1 [Compound 19] are within error of each other in EC50: 30.9 ± 5.5 nM for the first, 37.8 ± 8.7 nM for the second.

First: CN(C)CCNc1cc(/C=C/c2ccccc2)nc2ccc(Cl)cc12 [Compound 22]
Second: CN(C)CCNc1cc(/C=C/c2cccnc2)nc2ccc(Cl)cc12 [Compound 52]
The EC50 of the first is 1.5-fold lower: 22.4 ± 2 nM for the first, 33.6 ± 5.8 nM for the second.

First: COc1ccc(/C=C/c2cc(NCCN(C)C)c3cc(Cl)ccc3n2)cc1 [Compound 25]
Second: CN(C)CCNc1cc(/C=C/c2ccc(N(C)C)cc2)nc2ccc(Cl)cc12 [Compound 28]
The EC50 of the first is 2.5-fold lower: 34.8 ± 7.9 nM for the first, 88.3 ± 2.2 nM for the second. The first is the more potent here.

COc1ccc(/C=C/c2cc(NCCN(C)C)c3cc(Cl)ccc3n2)cc1OC [Compound 26] and CN(C)CCNc1cc(/C=C/c2cccs2)nc2ccc(Cl)cc12 [Compound 48] are within error of each other in EC50: 38.9 ± 7.8 nM for the first, 29.7 ± 4.6 nM for the second.

First: CN(C)CCNc1cc(/C=C/c2ccc([N+](=O)[O-])cc2)nc2ccccc12 [Compound 33]
Second: CN(C)CCNc1cc(/C=C/c2ccc(F)cc2)nc2ccccc12 [Compound 34]
The EC50 of the first is 1.9-fold higher: 47.9 ± 9.5 nM for the first, 25.5 ± 7.1 nM for the second.

CN(C)CCCCNc1cc(/C=C/c2ccc([N+](=O)[O-])cc2)nc2ccc(Cl)cc12 [Compound 36] and CN(C)CCCCNc1cc(/C=C/c2ccc(F)cc2)nc2ccc(Cl)cc12 [Compound 37] are within error of each other in EC50: 52.5 ± 2 nM for the first, 51.2 ± 1.6 nM for the second.

COc1ccc2nc(/C=C/c3cccs3)cc(NCCN(C)C)c2c1 [Compound 40] and CN(C)CCNc1cc(/C=C/c2cccs2)nc2ccc(F)cc12 [Compound 45] are within error of each other in EC50: 80 ± 7 nM for the first, 111 ± 29.1 nM for the second.

Going from COc1ccc2nc(/C=C/c3cccnc3)cc(NCCN(C)C)c2c1 [Compound 43] to CN(C)CCNc1cc(/C=C/c2ccncc2)nc2ccc(F)cc12 [Compound 46], the EC50 falls from 71 ± 27.5 nM to 36.1 ± 2.1 nM (2-fold).

Compared with CN(C)CCNc1cc(/C=C/c2nccs2)nc2ccc(Cl)cc12 [Compound 49], CN(C)CCNc1cc(/C=C/c2ccccn2)nc2ccc(Cl)cc12 [Compound 51] is 3.6-fold lower in EC50: 240 ± 30.6 nM for the first, 67.5 ± 1.9 nM for the second.

Going from CN(C)CCNc1cc(/C=C/c2cccc3ccccc23)nc2ccc(Cl)cc12 [Compound 56] to Clc1ccc2nc(/C=C/c3ccccc3)cc(NCCN3CCCC3)c2c1 [Compound 84], the EC50 falls from 373 ± 19 nM to 107 ± 8.4 nM (3.5-fold). The second is the more potent here.

First: CN(C)CCNc1cc(/C=C/C2CCCCC2)nc2ccc(Cl)cc12 [Compound 57]
Second: Clc1ccc2nc(/C=C/c3ccncc3)cc(NCCN3CCCC3)c2c1 [Compound 85]
The EC50 of the first is 5.8-fold higher: 394 ± 40 nM for the first, 67.7 ± 11.6 nM for the second. The second is the more potent here.

First: Fc1ccc(/C=C/c2cc(N3CCOCC3)c3cc(Cl)ccc3n2)cc1 [Compound 62]
Second: N#Cc1ccc(/C=C/c2cc(N3CCOCC3)c3cc(Cl)ccc3n2)cc1 [Compound 64]
The EC50 of the first is 6.7-fold higher: 6750 ± 1080 nM for the first, 1010 ± 84.2 nM for the second. The second is the more potent here.

Compared with Clc1ccc2nc(/C=C/c3ccncc3)cc(N3CCOCC3)c2c1 [Compound 63], Clc1ccc2nc(/C=C/c3ccncc3)cc(N3CCCC3)c2c1 [Compound 66] is 3-fold lower in EC50: 3590 ± 870 nM for the first, 1180 ± 175 nM for the second. The second is the more potent here.

Fc1ccc(/C=C/c2cc(N3CCCC3)c3cc(Cl)ccc3n2)cc1 [Compound 65] and Fc1ccc(/C=C/c2cc(N3CCC(N4CCCCC4)CC3)c3cc(Cl)ccc3n2)cc1 [Compound 71] are within error of each other in EC50: 428 ± 15 nM for the first, 487 ± 69.5 nM for the second.

Fc1ccc(/C=C/c2cc(N3CCN(c4ccccn4)CC3)c3cc(Cl)ccc3n2)cc1 [Compound 67] and Clc1ccc2nc(/C=C/c3ccncc3)cc(N3CCN(c4ccccn4)CC3)c2c1 [Compound 68] are within 1.5-fold of each other in EC50: 3300 ± 60 nM for the first, 2570 ± 610 nM for the second.

Fc1ccc(/C=C/c2cc(Nc3ccc(N4CCCCC4)cc3)c3cc(Cl)ccc3n2)cc1 [Compound 69] and Clc1ccc2nc(/C=C/c3ccncc3)cc(Nc3ccc(N4CCCCC4)cc3)c2c1 [Compound 70] are within error of each other in EC50: 667 ± 117 nM for the first, 793 ± 81.3 nM for the second.

First: Clc1ccc2nc(/C=C/c3ccncc3)cc(NCCN3CCOCC3)c2c1 [Compound 82]
Second: CN1CCN(CCNc2cc(/C=C/c3ccncc3)nc3ccc(Cl)cc23)CC1 [Compound 87]
The EC50 of the first is 2.6-fold higher: 137 ± 14.6 nM for the first, 53.3 ± 8.5 nM for the second. The second is the more potent here.

Fc1ccc(/C=C/c2cc(NCCN3CCCC3)c3cc(Cl)ccc3n2)cc1 [Compound 83] showed an EC50 of 92.3 ± 5.8 nM.

same assay, conditions: Dd2 strain

In the case of COc1ccc2nc(C)cc(NCCN(C)C)c2c1 [Compound 6a], the EC50 is reported as “inactive”.
Cc1cc(NCCN(C)C)c2cc(Cl)ccc2n1 [Compound 6c] was tested, and the EC50 was “inactive”.
With Cc1cc(NCCCN(C)C)c2cc(Cl)ccc2n1 [Compound 6e] the EC50 was “inactive”.

same assay, conditions: Dd2 strain; read-out: EC50

First: COc1ccc2nc(/C=C/c3ccccc3)cc(NCCN(C)C)c2c1 [Compound 8]
Second: CN(C)CCNc1cc(/C=C/c2ccccc2)nc2ccc(F)cc12 [Compound 16]
The EC50 of the first is 2-fold higher: 41.2 ± 5.3 nM for the first, 21 ± 2.1 nM for the second. The second is the more potent here.

First: COc1ccc2nc(/C=C/c3ccc([N+](=O)[O-])cc3)cc(NCCN(C)C)c2c1 [Compound 9]
Second: COc1ccc2nc(/C=C/c3cccc([N+](=O)[O-])c3)cc(NCCN(C)C)c2c1 [Compound 11]
The EC50 of the first is 1.7-fold lower: 28.6 ± 0.9 nM for the first, 49.5 ± 4 nM for the second.

Going from COc1ccc2nc(/C=C/c3ccccc3[N+](=O)[O-])cc(NCCN(C)C)c2c1 [Compound 10] to COc1ccc2nc(/C=C/c3ccccn3)cc(NCCN(C)C)c2c1 [Compound 42], the EC50 rises from 56.3 ± 8.1 nM to 1030 ± 233 nM (18-fold). The first is the more potent here.

Compared with COc1cc(/C=C/c2cc(NCCN(C)C)c3cc(F)ccc3n2)cc(OC)c1OC [Compound 21], CN(C)CCNc1cc(/C=C/c2ccco2)nc2ccc(F)cc12 [Compound 44] is 2.1-fold higher in EC50: 38.6 ± 1.8 nM for the first, 82.6 ± 9.4 nM for the second.

CN(C)CCNc1cc(/C=C/c2ccccc2)nc2ccccc12 [Compound 32] and CN(C)CCNc1cc(/C=C/c2cc3ccccc3[nH]2)nc2ccc(Cl)cc12 [Compound 54] are within error of each other in EC50: 80.7 ± 22.4 nM for the first, 95.9 ± 6.7 nM for the second.

Going from COc1ccc2nc(/C=C/c3ccco3)cc(NCCN(C)C)c2c1 [Compound 39] to CN(C)CCNc1cc(/C=C/c2ccco2)nc2ccc(Cl)cc12 [Compound 47], the EC50 falls from 88.7 ± 2.3 nM to 37 ± 4.3 nM (2.4-fold). The second is the more potent here.

Going from CN(C)CCNc1cc(/C=C/c2cncnc2)nc2ccc(Cl)cc12 [Compound 53] to COc1ccc2nc(/C=C/c3cc(NCCN(C)C)c4cc(Cl)ccc4n3)ccc2c1 [Compound 55], the EC50 rises from 155 ± 11.6 nM to 281 ± 40.3 nM (1.8-fold).

First: COc1ccc2nc(CCc3ccncc3)cc(NCCN(C)C)c2c1 [Compound 58]
Second: CN(C)CCNc1cc(CCc2ccncc2)nc2ccc(Cl)cc12 [Compound 59]
The EC50 of the first is 2.7-fold higher: 709 ± 58.2 nM for the first, 259 ± 15.5 nM for the second. The second is the more potent here.

With N#Cc1ccc(/C=C/c2cc(N3CCOCC3)c3cc(Cl)ccc3n2)cc1 [Compound 64] the EC50 was greater than 1000 nM.

In the case of COc1ccc2nc(/C=C/c3ccncc3)cc(NCCN(C)C)c2c1 [Compound 41], the EC50 is reported as 33.6 nM and 38.8 nM.

Source: patent US12479803B2, “Antimalarial compounds” (UNIVERSITY OF CENTRAL FLORIDA RESEARCH FOUNDATION, INC., priority 2019, dated 2025)
